Converted amounts (≈) assume the structure as drawn. Non-standard residues stand in square brackets, D forms with d. Residues, ends and D or L forms follow the SMILES beside them. Dip = N[C@H](C(=O)O)C(c1ccccc1)c1ccccc1; 2Nal = N[C@@H](Cc1ccc2ccccc2c1)C(=O)O; d2Nal = N[C@H](Cc1ccc2ccccc2c1)C(=O)O; Dab = NCC[C@H](N)C(=O)O
How the values were obtained:
[1] = tested on: Pseudomonas aeruginosa (ATCC 27883); conditions: ATCC 27883
S. aureus ATCC 29213 = conditions: ATCC 29213
human red blood cells = tested on: human red blood cells; set-up: unit not given beside the values
[2] = tested on: Escherichia coli (ATCC 25922); conditions: ATCC 25922
[3] = tested on: Methicillin-resistant Staphylococcus aureus MRSA (ATCC BAA-1556); conditions: ATCC BAA-1556

Row | Structure (SMILES) | MIC P. aeruginosa ATCC 27883 [1] [µg/mL] | MIC S. aureus ATCC 29213 (S. aureus ATCC 29213) [µg/mL] | HC50 (human red blood cells) | MIC E. coli ATCC 25922 [2] [µg/mL] | MIC MRSA ATCC BAA-1556 [3] [µg/mL]
1 | N=C(N)NCCC[C@H](NC(=O)[C@H](CCCNC(=N)N)NC(=O)[C@H](CCCNC(=N)N)NC(=O)[C@@H](N)CCCNC(=N)N)C(=O)N[C@@H](Cc1c[nH]c2ccccc12)C(=O)N[C@@H](Cc1ccc2ccccc2c1)C(=O)N[C@@H](Cc1ccc2ccccc2c1)C(=O)O [IFX-029-1, NH2-R-R-R-R-Trp-NaI-NaI-OH] (H-RRRRW[2Nal][2Nal]-OH) | 50 (≈ 40.9 µM) | 3.1 (≈ 2.53 µM) | 400 | 12.5 (≈ 10.2 µM) | 3.1 (≈ 2.53 µM)
2 | N=C(N)NCCC[C@H](NC(=O)[C@H](CCCNC(=N)N)NC(=O)[C@H](CCCNC(=N)N)NC(=O)[C@@H](N)CCCNC(=N)N)C(=O)N[C@@H](Cc1ccc2ccccc2c1)C(=O)N[C@@H](Cc1ccc2ccccc2c1)C(=O)N[C@@H](Cc1ccc2ccccc2c1)C(=O)O [IFX-009-1, NH2-Arg-Arg-Arg-Arg-NaI-NaI-NaI-OH] (H-RRRR[2Nal][2Nal][2Nal]-OH) | 12.5 (≈ 10.1 µM) | 3.1 (≈ 2.51 µM) | 260 | 12.5 (≈ 10.1 µM) | 3.1 (≈ 2.51 µM)
3 | N=C(N)NCCC[C@H](NC(=O)[C@H](CCCNC(=N)N)NC(=O)[C@@H](N)CCCNC(=N)N)C(=O)N[C@@H](CCCNC(=N)N)C(=O)N[C@H](C(=O)N[C@H](C(=O)N[C@@H](Cc1c[nH]c2ccccc12)C(=O)O)C(c1ccccc1)c1ccccc1)C(c1ccccc1)c1ccccc1 [IFX-028-1, NH2-R-R-R-R-Dip-Dip-Trp-OH] (H-RRRR[Dip][Dip]W-OH) | 50 (≈ 39.2 µM) | 6.2 (≈ 4.86 µM) | 570 | 25 (≈ 19.6 µM) | 6.2 (≈ 4.86 µM)
4 | N=C(N)NCCC[C@H](NC(=O)[C@H](CCCNC(=N)N)NC(=O)[C@@H](N)CCCNC(=N)N)C(=O)N[C@@H](Cc1c[nH]c2ccccc12)C(=O)N[C@@H](Cc1ccc2ccccc2c1)C(=O)N[C@@H](Cc1ccc2ccccc2c1)C(=O)O [IFX-023-1, NH2-R-R-R-Trp-NaI-NaI-OH] (H-RRRW[2Nal][2Nal]-OH) | 25 (≈ 23.4 µM) | 6.2 (≈ 5.81 µM) | 495 | 12.5 (≈ 11.7 µM) | 6.2 (≈ 5.81 µM)

Second part, the molecule after the results:

Row | MIC P. aeruginosa ATCC 27883 [1] [µg/mL] | MIC S. aureus ATCC 29213 (S. aureus ATCC 29213) [µg/mL] | HC50 (human red blood cells) | MIC E. coli ATCC 25922 [2] [µg/mL] | MIC MRSA ATCC BAA-1556 [3] [µg/mL] | Structure (SMILES)
5 | 25 (≈ 18.3 µM) | 6.2 (≈ 4.53 µM) | 230 | 25 (≈ 18.3 µM) | 6.2 (≈ 4.53 µM) | N=C(N)NCCC[C@H]1NC(=O)[C@@H](CCCNC(=N)N)NC(=O)[C@@H](CCCNC(=N)N)NC(=O)[C@@H](Cc2c[nH]c3ccccc23)NC(=O)[C@@H](Cc2c[nH]c3ccccc23)NC(=O)[C@@H](Cc2c[nH]c3ccccc23)NC(=O)[C@@H](Cc2c[nH]c3ccccc23)NC(=O)[C@@H](CCCNC(=N)N)NC1=O [IFX-032, c[arg-arg-arg-arg-trp-trp-trp-trp]] (cyclo([dR][dR][dR][dR][dW][dW][dW][dW]))
6 | 32 (≈ 22.8 µM) | 64 (≈ 45.5 µM) | 780 | 32 (≈ 22.8 µM) | 128 (≈ 91.1 µM) | N=C(N)NCCC[C@@H]1NC(=O)[C@H](CCN)NC(=O)[C@@H](CCCNC(=N)N)NC(=O)[C@H](CCCNC(=N)N)NC(=O)[C@@H](Cc2ccc3ccccc3c2)NC(=O)[C@@H](Cc2ccc3ccccc3c2)NC(=O)[C@H](Cc2c[nH]c3ccccc23)NC(=O)[C@H](CCN)NC(=O)[C@@H](CCCNC(=N)N)NC1=O [IFX-059, c[Arg-arg-Dab-Arg-arg-Dab-Trp-naI-naI]] (cyclo([Dab]R[dR][Dab]W[d2Nal][d2Nal]R[dR]))
7 | 25 (≈ 18.3 µM) | 6.2 (≈ 4.53 µM) | 95 | 12.5 (≈ 9.13 µM) | 6.2 (≈ 4.53 µM) | N=C(N)NCCC[C@@H]1NC(=O)[C@@H](CCCNC(=N)N)NC(=O)[C@H](CCCNC(=N)N)NC(=O)[C@@H](Cc2c[nH]c3ccccc23)NC(=O)[C@H](Cc2c[nH]c3ccccc23)NC(=O)[C@@H](Cc2c[nH]c3ccccc23)NC(=O)[C@H](Cc2c[nH]c3ccccc23)NC(=O)[C@@H](CCCNC(=N)N)NC1=O [IFX-033, c[Arg-arg-Arg-arg-Trp-trp-Trp-trp]] (cyclo(R[dR]R[dR]W[dW]W[dW]))
8 | 50 (≈ 35.4 µM) | 3.1 (≈ 2.19 µM) | 120 | 25 (≈ 17.7 µM) | 6.2 (≈ 4.39 µM) | N=C(N)NCCC[C@@H]1NC(=O)[C@H](CCCNC(=N)N)NC(=O)[C@H](CCCNC(=N)N)NC(=O)[C@H](Cc2ccc3ccccc3c2)NC(=O)[C@H](Cc2ccc3ccccc3c2)NC(=O)[C@H](Cc2ccc3ccccc3c2)NC(=O)[C@H](Cc2ccc3ccccc3c2)NC(=O)[C@H](CCCNC(=N)N)NC1=O [IFX-006, c[Arg-Arg-Arg-Arg-NaI-NaI-NaI-NaI]] (cyclo([2Nal][2Nal][2Nal][2Nal]RRRR))
9 | 50 (≈ 33.7 µM) | 6.2 (≈ 4.18 µM) | 580 | 25 (≈ 16.8 µM) | 6.2 (≈ 4.18 µM) | N=C(N)NCCC[C@@H]1NC(=O)CNC(=O)[C@H](Cc2c[nH]c3ccccc23)NC(=O)[C@H](Cc2c[nH]c3ccccc23)NC(=O)[C@H](Cc2c[nH]c3ccccc23)NC(=O)[C@H](Cc2c[nH]c3ccccc23)NC(=O)CNC(=O)[C@H](CCCNC(=N)N)NC(=O)[C@H](CCCNC(=N)N)NC(=O)[C@H](CCCNC(=N)N)NC1=O [IFX-043] (cyclo(GRRRRGWWWW))
10 | 25 (≈ 18.3 µM) | 6.2 (≈ 4.53 µM) | 320 | 12.5 (≈ 9.13 µM) | 6.2 (≈ 4.53 µM) | N=C(N)NCCC[C@@H]1NC(=O)[C@@H](CCCNC(=N)N)NC(=O)[C@H](Cc2c[nH]c3ccccc23)NC(=O)[C@@H](Cc2c[nH]c3ccccc23)NC(=O)[C@H](Cc2c[nH]c3ccccc23)NC(=O)[C@@H](Cc2c[nH]c3ccccc23)NC(=O)[C@H](CCCNC(=N)N)NC(=O)[C@@H](CCCNC(=N)N)NC1=O [IFX-034, c[arg-Arg-arg-Arg-trp-Trp-trp-Trp]] (cyclo(R[dR]R[dW]W[dW]W[dR]))
11 | 50 (≈ 49.1 µM) | 6.2 (≈ 6.08 µM) | 295 | 50 (≈ 49.1 µM) | 6.2 (≈ 6.08 µM) | N=C(N)NCCC[C@@H]1NC(=O)[C@H](CCCNC(=N)N)NC(=O)[C@H](CCCNC(=N)N)NC(=O)[C@H](Cc2ccc3ccccc3c2)NC(=O)[C@H](Cc2ccc3ccccc3c2)NC(=O)[C@H](CCCNC(=N)N)NC1=O [IFX-011, c[Arg-Arg-Arg-Arg-NaI-NaI]] (cyclo([2Nal][2Nal]RRRR))
12 | >100 | 6.2 (≈ 4.73 µM) | 480 | 50 (≈ 38.1 µM) | 12.5 (≈ 9.54 µM) | NCCCC[C@@H]1NC(=O)[C@H](CCCCN)NC(=O)[C@H](CCCCN)NC(=O)[C@H](C(c2ccccc2)c2ccccc2)NC(=O)[C@H](C(c2ccccc2)c2ccccc2)NC(=O)[C@H](C(c2ccccc2)c2ccccc2)NC(=O)[C@H](CCCCN)NC(=O)[C@H](CCCCN)NC1=O [IFX-015, c[Lys-Lys-Lys-Lys-Lys-Dip-Dip-Dip]] (cyclo([Dip][Dip][Dip]KKKKK))

Reference: US20220289794A1, “SYNTHETIC ANTIMICROBIAL PEPTIDES” (priority 2019, published 2022)
